Data taken from ChEMBL document CHEMBL3044789, “Comparing weed and crop seedling response to pre-emergence pendimethalin application in Corchorus olitorius and Abelmoschus esculentus” (Crop Prot, 2006).

Experiments:
[1] = system: Euphorbia heterophylla; experiment: Herbicidal activity against Euphorbia heterophylla in Abelmoschus esculentus plots assessed as major weed growth at 0.33 kg a.i/ha after 2 weeks; format: functional
[2] = system: Corchorus olitorius; experiment: Phytotoxicity in Corchorus olitorius assessed as shoot length at 0.66 kg a.i/ha treated to soil after 7 weeks (reference value: 23.7 +/- 0.10 mm); format: organism-based; conditions: in vivo, other, 1176 h
[3] = system: Abelmoschus esculentus; experiment: Phytotoxicity in Abelmoschus esculentus assessed as shoot length at 0.66 kg a.i/ha applied as solution after 7 weeks (reference value: 28.7 +/- 0.34 mm); format: organism-based; conditions: in vivo, other, 1176 h
[4] = system: Chromolaena odorata; experiment: Herbicidal activity against Chromolaena odorata in Corchorus olitorius plots assessed as weed recovery at 0.99 kg a.i/ha after 2 weeks (reference value: 78.3 +/- 0.74 %); format: functional
[5] = system: Synedrella nodiflora; experiment: Herbicidal activity against Synedrella nodiflora in Abelmoschus esculentus plots assessed as weed cover at 0.66 kg a.i/ha after 4 weeks (reference value: 22.6 +/- 0.49 %); format: functional
[6] = system: Euphorbia heterophylla; experiment: Herbicidal activity against Euphorbia heterophylla in Abelmoschus esculentus plots assessed as weed cover at 0.66 kg a.i/ha after 4 weeks (reference value: 22.6 +/- 0.49 %); format: functional
[7] = system: Chromolaena odorata; experiment: Herbicidal activity against Chromolaena odorata in Corchorus olitorius plots assessed as weed recovery at 1.32 kg a.i/ha after 2 weeks (reference value: 78.3 +/- 0.74 %); format: functional
[8] = system: Corchorus olitorius; experiment: Phytotoxicity in Corchorus olitorius assessed as seedling injury at 1.32 kg a.i/ha applied as solution after 7 weeks relative to control; format: organism-based; conditions: in vivo, other, 1176 h
[9] = system: Calopogonium mucunoides; experiment: Herbicidal activity against Calopogonium mucunoides in Corchorus olitorius plots assessed as weed cover at 0.99 kg a.i/ha after 2 weeks (reference value: 81.7 +/- 0.43 %); format: functional
[10] = system: Corchorus olitorius; experiment: Phytotoxicity in Corchorus olitorius assessed as crop seedling injury at 0.66 kg a.i/ha after 2 weeks relative to untreated control; format: organism-based; conditions: in vivo, 336 h
[11] = system: Euphorbia heterophylla; experiment: Herbicidal activity against Euphorbia heterophylla in Abelmoschus esculentus plots assessed as weed cover at 1.32 kg a.i/ha after 4 weeks (reference value: 22.6 +/- 0.49 %); format: functional
[12] = system: Corchorus olitorius; experiment: Phytotoxicity in Corchorus olitorius assessed as root length at 1.32 kg a.i/ha treated to soil after 7 weeks (reference value: 16.9 +/- 0.09 mm); format: organism-based; conditions: in vivo, other, 1176 h
[13] = system: Corchorus olitorius; experiment: Phytotoxicity in Corchorus olitorius assessed as root length at 1.32 kg a.i/ha applied as solution after 7 weeks (reference value: 14.3 +/- 1.06 mm); format: organism-based; conditions: in vivo, other, 1176 h
[14] = system: Calopogonium mucunoides; experiment: Herbicidal activity against Calopogonium mucunoides in Abelmoschus esculentus plots assessed as weed cover at 1.32 kg a.i/ha after 2 weeks (reference value: 63.5 +/- 0.29 %); format: functional
[15] = system: Abelmoschus esculentus; experiment: Phytotoxicity in Abelmoschus esculentus assessed as seedling injury at 1.32 kg a.i/ha applied as solution after 7 weeks relative to control; format: organism-based; conditions: in vivo, other, 1176 h
[16] = system: Calopogonium mucunoides; experiment: Herbicidal activity against Calopogonium mucunoides in Corchorus olitorius plots assessed as weed cover at 0.66 kg a.i/ha after 2 weeks (reference value: 81.7 +/- 0.43 %); format: functional
[17] = system: Synedrella nodiflora; experiment: Herbicidal activity against Synedrella nodiflora in Abelmoschus esculentus plots assessed as major weed growth at 0.99 kg a.i/ha after 2 weeks; format: functional
[18] = system: Talinum fruticosum; experiment: Herbicidal activity against Talinum fruticosum in Abelmoschus esculentus plots assessed as weed cover at 0.99 kg a.i/ha after 4 weeks (reference value: 22.6 +/- 0.49 %); format: functional
[19] = system: Abelmoschus esculentus; experiment: Phytotoxicity in Abelmoschus esculentus assessed as seedling emergence at 0.33 kg a.i/ha treated to soil after 7 weeks (reference value: 95 +/- 0.05 %); format: organism-based; conditions: in vivo, other, 1176 h
[20] = system: Synedrella nodiflora; experiment: Herbicidal activity against Synedrella nodiflora in Abelmoschus esculentus plots assessed as weed cover at 0.66 kg a.i/ha after 2 weeks (reference value: 63.5 +/- 0.29 %); format: functional
[21] = system: Synedrella nodiflora; experiment: Herbicidal activity against Synedrella nodiflora in Abelmoschus esculentus plots assessed as weed cover at 1.32 kg a.i/ha after 7 weeks (reference value: 14.7 +/- 0.46 %); format: functional
[22] = system: Calopogonium mucunoides; experiment: Herbicidal activity against Calopogonium mucunoides in Corchorus olitorius plots assessed as weed cover at 1.32 kg a.i/ha after 7 weeks (reference value: 1.7 +/- 0.56 %); format: functional
[23] = system: Ageratum conyzoides; experiment: Herbicidal activity against Ageratum conyzoides in Corchorus olitorius plots assessed as weed cover at 1.32 kg a.i/ha after 4 weeks (reference value: 20.1+/- 0.57 %); format: functional
[24] = system: Euphorbia heterophylla; experiment: Herbicidal activity against Euphorbia heterophylla in Corchorus olitorius plots assessed as weed recovery at 1.32 kg a.i/ha after 2 weeks (reference value: 78.3 +/- 0.74 %); format: functional
[25] = system: Calopogonium mucunoides; experiment: Herbicidal activity against Calopogonium mucunoides in Abelmoschus esculentus plots assessed as major weed growth at 0.99 kg a.i/ha after 2 weeks; format: functional
[26] = system: Corchorus olitorius; experiment: Phytotoxicity in Corchorus olitorius assessed as seedling emergence at 0.33 kg a.i/ha treated to soil after 7 weeks (reference value: 95 +/- 0.05 %); format: organism-based; conditions: in vivo, other, 1176 h
[27] = system: Synedrella nodiflora; experiment: Herbicidal activity against Synedrella nodiflora in Corchorus olitorius plots assessed as weed cover at 0.66 kg a.i/ha after 2 weeks (reference value: 81.7 +/- 0.43 %); format: functional
[28] = system: Synedrella nodiflora; experiment: Herbicidal activity against Synedrella nodiflora form in Abelmoschus esculentus plots assessed as minor weed growth at 0.66 kg a.i/ha after 2 weeks; format: functional
[29] = system: Euphorbia heterophylla; experiment: Herbicidal activity against Euphorbia heterophylla in Abelmoschus esculentus plots assessed as weed cover at 0.99 kg a.i/ha after 2 weeks (reference value: 63.5 +/- 0.29 %); format: functional
[30] = system: Calopogonium mucunoides; experiment: Herbicidal activity against Calopogonium mucunoides in Corchorus olitorius plots assessed as weed cover at 0.33 kg a.i/ha after 2 weeks (reference value: 81.7 +/- 0.43 %); format: functional
[31] = system: Cyperus rotundus; experiment: Herbicidal activity against Cyperus rotundus in Abelmoschus esculentus plots assessed as weed cover at 0.66 kg a.i/ha after 7 weeks (reference value: 14.7 +/- 0.46 %); format: functional
[32] = system: Abelmoschus esculentus; experiment: Phytotoxicity in Abelmoschus esculentus assessed as seed germination at 0.33 kg a.i/ha applied as solution after 7 weeks (reference value: 85.7 +/- 0.36 %); format: organism-based; conditions: in vivo, other, 1176 h
[33] = system: Asteraceae; experiment: Herbicidal activity against Aspilia africana in Corchorus olitorius plots assessed as weed cover at 0.66 kg a.i/ha after 7 weeks (reference value: 1.7 +/- 0.56 %); format: functional
[34] = system: Corchorus olitorius; experiment: Phytotoxicity in Corchorus olitorius assessed as shoot length at 0.66 kg a.i/ha applied as solution after 7 weeks (reference value: 22.9 +/- 0.8 mm); format: organism-based; conditions: in vivo, other, 1176 h
[35] = system: Synedrella nodiflora; experiment: Herbicidal activity against Synedrella nodiflora in Abelmoschus esculentus plots assessed as minor weed growth at 1.32 kg a.i/ha after 2 weeks; format: functional
[36] = system: Euphorbia heterophylla; experiment: Herbicidal activity against Euphorbia heterophylla in Corchorus olitorius plots assessed as weed cover at 0.33 kg a.i/ha after 7 weeks (reference value: 1.7 +/- 0.56 %); format: functional

For `CCC(CC)Nc1c([N+](=O)[O-])cc(C)c(C)c1[N+](=O)[O-]` [PENDIMETHALIN], the Activity [1] was 31 /m2, the Activity [2] was 20.8 mm and the Activity [3] was 14.7 mm. For the same molecule, the Activity [4] was 21.7%, the Activity [5] was 47.9% and the Activity [6] was 47.9%. It also gave an Activity [7] of 13.3%, an Activity [8] of 66.7% and an Activity [9] of 51.7%. The Activity [10] was 41.7%, the Activity [11] was 36.2% and the Activity [12] was 14.7 mm. The Activity [13] was 2.4 mm, the Activity [14] was 45% and the Activity [15] was 56.8%. The Activity [16] was 51.7%, the Activity [17] was 31 /m2 and the Activity [18] was 39.2%. The Activity [19] was 85%, the Activity [20] was 50.8% and the Activity [21] was 82.4%. It also gave an Activity [22] of 95%, an Activity [23] of 33.3% and an Activity [24] of 13.3%. For the same molecule, the Activity [25] was 31 /m2, the Activity [26] was 85% and the Activity [27] was 51.7%. The Activity [28] was 1 /m2, the Activity [29] was 47.9% and the Activity [30] was 63.3%. It also gave an Activity [31] of 90%, an Activity [32] of 52.7% and an Activity [33] of 100%. The Activity [34] was 6 mm, the Activity [35] was 1 /m2 and the Activity [36] was 100%.
